# In patent publication US4680285A, “Treatment of malignant tumors with 2-(β-D-ribofuranosylthiazole-4-carboxamide related compounds” (priority 1985, dated 1987):
# “Also recorded” adds a separate entry of the source.
# How the values were obtained:
# L-1210 lymphoid leukemia = L-1210 lymphoid leukemia in vivo screen, median survival (Example 5); design: species or system CD2 F1 male mice; conditions: for Percent Treated Animals/Control Animals: >125% positive; for Treated Group Survival Time (median): control 8.5
# Text: As an indicator of reproducible activity, compound 1 of the invention was screened against L-1210 lymphoid leukemia in vivo using CD2 F1 male mice as the testing species. The parameter of efficacy chosen was based upon the median survival time of animals treated with the drug vs. appropriate control group animals. Both drug treated animals and control group animals were inoculated IP with 10^5 seed cells of L-1210 lymphoid leukemia in Ascitic fluid.
# One day after tumor inoculation, the drug group of animals was placed on a regimen of treatment of compound 1 at the dose levels as noted below, table 1. The drug treated group of animals was inoculated once daily for five days at the doses noted by IP injection of the test compound appropriately diluted with water.
# Day six was chosen as an indication of drug toxicity. […] Death of drug treated animals after day six was, therefore, attributed to tumor deaths and not drug toxicity.
# The median death day of the control group was day 8.5. […] A percent of drug treated animals/control animals greater than 125% is taken as positive drug activity.
# Lewis lung carcinoma = Lewis lung carcinoma (IV inoculated) in vivo, median survival, 60-day test (Example 10); design: species or system B6 D2 F1 male mice; conditions: for Treated Group Survival Time (median): assigned 60 at end of test, control 18.4; for Percent Treated Animals/Control Animals: based on assigned 60 days
# Text: For example 10, B6 D2 F1 male mice were used and challenged with Lewis lung carcinoma.
# In Example 10, forty control animals were used and ten test animals each at dose levels indicated below in Table 6. For both the control group and the drug treated group, tumors were induced by IV injection on day zero followed by initiating of drug treatment on day one. For example 10 water was used as the drug vehicle.
# In both the control group and the drug treated group in Example 10, the animals were inoculated on day zero with a homogenate of 10^6 seed cells of Lewis lung carcinoma. For Example 10, drug treatment was started on day one and compound 1 given once daily for nine days. Day five was utilized as the cut-off date for details attributable to toxicity of the drug. […] Efficacy of treatment was determined by comparing median survival time of drug treated animals with median survival time of the control animals and is expressed as percentage increase of treated animals/control animals (T/C) as per Example 5.
# The test period was for sixty days and at the end of the sixty day period all animals surviving in the test groups were evaluated as either cured, no-takes, or tumor survivors as per Example 5 above.
# In this example, the drug treated animals were injected IP with the dose level noted in table 6 below. Ten animals were treated at each dose level. No control animals survived beyond day 23 with a median death data of day 18.4. […] Because of this fact, the T/C ratio noted in table 6 below is a constant figure based on assigning survival day rate of sixty to the treated animals and a median death date of 18.4 days to the control animals.
# [1] = tested on: Lewis lung seed cells (brain tumors); test: Intracranially inoculated Lewis lung brain tumors in vivo, survival (Example 12); design: species or system AKD2 F1 mice; conditions: for Treated Group Survival Time: control 9.6
# Text: (§1) For Example 12, compound 1 was given IP to a group of AKD2 F1 mice which were inflicted by intercranial inoculation with Lewis lung seed cells to establish brain tumors.
# (§2) For this test, 32 control animals were used and no control animals survived beyond day eleven with a mean death data of day 9.6 for the controls. Water was used as the drug vehicle. For both the control group and the test group, tumors were induced on day zero with initiation of drug treatment on day one where compound 1 was given once daily for nine days. Test results are expressed as T/C as per example 5.
# malignant tumors = test: antitumor activity in vivo (general statements); conditions: summary statements
# [2] = toxicity in tumor bearing animals; type: in vivo; conditions: dosages up to 2000 mg/Kg, toxicity day
# Text: In a host which has been diagnosed as being terminally ill with a malignant tumor excessive amounts beyond any toxicity range might be indicated if there is any probability of cure of the terminally ill host as is commonly practiced in current cancer chemotherapy.
# [3] = blood brain barrier crossing after IP injection (Example 12); type: in vivo, AKD2 F1 mice; conditions: inferred from activity on intracranial tumor after IP injection
# Text: as §1, §2
# [4] = tested on: type 1 herpes simplex virus; conditions: cited from earlier work
# [5] = tested on: type 3 parainfluenza virus; conditions: cited from earlier work
# virus = conditions: cited from earlier work
# [6] = 100 mg/Kg, ten animals, sixty days
smiles,measurement,setting,value
"NC(=O)c1csc([C@@H]2O[C@H](CO)[C@@H](O)[C@H]2O)n1 [Compound 1, 2-β-D-Ribofuranosylthiazole-4-Carboxamide]",Percent Treated Animals/Control Animals,L-1210 lymphoid leukemia; 12.5 mg/Kg IP once daily x5,111%
same,Treated Group Survival Time (median),L-1210 lymphoid leukemia; 12.5 mg/Kg IP once daily x5,9.5 days
same,Percent Treated Animals/Control Animals,L-1210 lymphoid leukemia; 25 mg/Kg IP once daily x5,120%
same,Treated Group Survival Time (median),L-1210 lymphoid leukemia; 25 mg/Kg IP once daily x5,10.2 days
same,Percent Treated Animals/Control Animals,L-1210 lymphoid leukemia; 50 mg/Kg IP once daily x5,129%
same,Treated Group Survival Time (median),L-1210 lymphoid leukemia; 50 mg/Kg IP once daily x5,11.0 days
same,Percent Treated Animals/Control Animals,L-1210 lymphoid leukemia; 100 mg/Kg IP once daily x5,149%
same,Treated Group Survival Time (median),L-1210 lymphoid leukemia; 100 mg/Kg IP once daily x5,12.7 days
same,Percent Treated Animals/Control Animals,L-1210 lymphoid leukemia; 200 mg/Kg IP once daily x5,168%
same,Treated Group Survival Time (median),L-1210 lymphoid leukemia; 200 mg/Kg IP once daily x5,14.3 days
same,survival through day six (drug toxicity),L-1210 lymphoid leukemia; 12.5-200 mg/Kg IP once daily x5,all drug treated animals survived through day six
same,activity in multiple dose assay,L-1210 lymphoid leukemia; T/C >125% taken as positive,positive activity
same,median death day vs control,L-1210 lymphoid leukemia; all levels of drug tested,longer at all levels of drug tested
same,median death day vs control,L-1210 lymphoid leukemia; greater than 50 mg/Kg,significantly longer
same,animals surviving the sixty day test period,Lewis lung carcinoma; 25 mg/Kg,all test animals survived
same,Treated Group Survival Time (median),Lewis lung carcinoma; 25 mg/Kg IP once daily x9,60 days
same,Percent Treated Animals/Control Animals,Lewis lung carcinoma; 25 mg/Kg IP once daily x9,326%
same,Treated Group Survival Time (median),Lewis lung carcinoma; 50 mg/Kg IP once daily x9,60 days
same,Percent Treated Animals/Control Animals,Lewis lung carcinoma; 50 mg/Kg IP once daily x9,326%
same,day of the one death,"Lewis lung carcinoma; 50 mg/Kg, ten animals",47 days
same,animals judged as cured,"Lewis lung carcinoma; 50 mg/Kg, ten animals, sixty days",nine cures
same,Treated Group Survival Time (median),Lewis lung carcinoma; 100 mg/Kg IP once daily x9,60 days
same,Percent Treated Animals/Control Animals,Lewis lung carcinoma; 100 mg/Kg IP once daily x9,326%
same,day of the one death,"Lewis lung carcinoma; 100 mg/Kg, ten animals",46 days
same,animals judged as cured,Lewis lung carcinoma; [6],eight cures
same,tumor survivors,Lewis lung carcinoma; [6],one tumor survivor
same,animals surviving the sixty day test period,Lewis lung carcinoma; 200 mg/Kg,all test animals survived
same,Treated Group Survival Time (median),Lewis lung carcinoma; 200 mg/Kg IP once daily x9,60 days
same,Percent Treated Animals/Control Animals,Lewis lung carcinoma; 200 mg/Kg IP once daily x9,326%
same,animals judged as cured,"Lewis lung carcinoma; 200 mg/Kg, ten animals, sixty days",all ten
same,animals surviving the sixty day test period,Lewis lung carcinoma; 400 mg/Kg,all test animals survived
same,Treated Group Survival Time (median),Lewis lung carcinoma; 400 mg/Kg IP once daily x9,60 days
same,Percent Treated Animals/Control Animals,Lewis lung carcinoma; 400 mg/Kg IP once daily x9,326%
same,animals judged as cured,"Lewis lung carcinoma; 400 mg/Kg, ten animals, sixty days",all ten
same,mortality attributable to drug toxicity,"Lewis lung carcinoma; 25-400 mg/Kg, day five cut-off",no mortality attributable to drug toxicity
same,activity against Lewis lung carcinoma,Lewis lung carcinoma; Example 10,effective antitumor agent; also recorded: active antitumor agent; also recorded: outstanding activity
same,median survival time vs control,Lewis lung carcinoma; Example 10,dramatically extended
same,DN 2 criteria of the National Cancer Institute,Lewis lung carcinoma; Lewis lung carcinoma,successfully passed
same,cures at cessation of the test period,Lewis lung carcinoma; all but one dose level,at least 80%
same,cures at cessation of the test period,Lewis lung carcinoma; at two dose levels (200 and 400 mg/Kg),100%
same,Percent Treated Animals/Control Animals,[1]; 25.0 mg/Kg IP once daily x9,172%
same,Treated Group Survival Time,[1]; 25.0 mg/Kg IP once daily x9,16.6 days
same,Percent Treated Animals/Control Animals,[1]; 37.5 mg/Kg IP once daily x9,166%
same,Treated Group Survival Time,[1]; 37.5 mg/Kg IP once daily x9,16.0 days
same,Percent Treated Animals/Control Animals,[1]; 75 mg/Kg IP once daily x9,185%
same,Treated Group Survival Time,[1]; 75 mg/Kg IP once daily x9,19.0 days
same,Percent Treated Animals/Control Animals,[1]; 150 mg/Kg IP once daily x9,197%
same,Treated Group Survival Time,[1]; 150 mg/Kg IP once daily x9,20.5 days
same,Percent Treated Animals/Control Animals,[1]; 300 mg/Kg IP once daily x9,213%
same,Treated Group Survival Time,[1]; 300 mg/Kg IP once daily x9,20.5 days
same,Percent Treated Animals/Control Animals,[1]; 600 mg/Kg IP once daily x9,211%
same,Treated Group Survival Time,[1]; 600 mg/Kg IP once daily x9,20.3 days
same,Percent Treated Animals/Control Animals,[1]; 700 mg/Kg IP once daily x9,211%
same,Treated Group Survival Time,[1]; 700 mg/Kg IP once daily x9,20.3 days
same,Percent Treated Animals/Control Animals,[1]; 800 mg/Kg IP once daily x9,221%
same,Treated Group Survival Time,[1]; 800 mg/Kg IP once daily x9,21.3 days
same,effect on brain tumors,"[1]; IP, once daily x9",reduction of the brain tumors
same,antitumor activity,malignant tumors,effective in vivo antitumor agents
same,antitumor activity,malignant tumors; listed as 2-β-D-ribofuranosylthiazole-4-carboxamide,positive antitumor activity; also recorded: significant antitumor activity in vivo
same,deaths attributed to toxicity,[2],no deaths of the animals were attributed to the toxicity
same,crossing of the blood brain barrier,[3],successful crossing of the blood brain barrier; also recorded: successfully crosses the blood brain barrier
same,in vitro antiviral activity,[4],only moderate
same,in vitro antiviral activity,[5],only moderate
same,number of deaths of test animals vs placebo control animals,virus; in vivo antiviral tests,equal to or exceeded the number of deaths of the placebo control animals
same,in vivo antiviral activity,virus; in vivo,no useful in vivo antiviral activity; also recorded: negative
